Data reported in patent publication US20100075852A1, “HERBICIDE COMBINATION COMPRISING DIMETHOXYTRIAZINYL-SUBSTITUTED DIFLUOROMETHANESULFONYLANILIDES” (BAYER CROPSCIENCE AG, priority 2008, published 2010).
Read-outs that look alike come from different tables or passages of the source.

Tests used:
Assay in all cases: Post-emergence action against weeds, greenhouse pot test, visual scoring
Assay type in all cases: in vivo
[1] = system: Oryza sativa (ORYSA); conditions: read-out: % activity found; for inhibition at 7 g/ha: 7 g of ai/ha alone; for inhibition at 210 g/ha: 210 g of ai/ha alone
Procedure: (§1) Seeds or rhizome pieces of mono- and dicotyledonous harmful and useful plants were placed in peat pots (diameter 4 cm) filled with sandy loam and then covered with soil. The pots were kept in a greenhouse under optimum conditions. In addition, harmful plants encountered in paddy rice cultivation were cultivated in pots with a water level 2 cm above the soil surface.
(§2) About three weeks after the start of the cultivation, the test plants were treated at the 2- to 3-leaf stage. The herbicides, formulated as powder or liquid concentrates, were, either alone or in the combinations according to the invention, sprayed in various dosages on to the green parts of the plants using an application rate of 600 l of water/ha (converted). For further cultivation of the plants, the pots were then again kept under optimum conditions in a greenhouse.
(§3) The visual scoring of the herbicidal effects was carried out in intervals up to 21 days after the treatment. Scoring was carried out in percent in comparison to the untreated control plants. 0%=no herbicidal activity, 100%=complete herbicidal activity=complete kill.
(§4) The percentages from the treatments with the herbicides alone (=individual application) and with the combinations according to the invention (=mixtures) were employed to calculate interactions using the method of Colby. When the observed efficacies of the mixtures exceed the formal sum of the values of the tests with individual applications, they also exceed the expected value according to Colby, which is calculated using the formula below (cf. S. R. Colby; in Weeds 15 (1967) pp. 20 to 22):
(§5) • A, B=activity of components A and B in percent at a dosage of a and b g of ai/ha (=gramm of active substance per hectare), respectively. • E=expected value in % at a dosage of a+b g of ai/ha.

[2] = system: Lolium multiflorum (LOLMU); conditions: Lolium multiflorum, post-emergence, LOLMU, read-out: % activity found; for inhibition at 60 g/ha: 60 g of ai/ha alone; for inhibition at 12 g/ha: 12 g of ai/ha alone; for inhibition at 70 g/ha: 70 g of ai/ha alone; for inhibition at 750 g/ha: 750 g of ai/ha alone
Procedure: as §1, §2, §3
(§6) The percentages from the treatments with the herbicides alone (=individual application) and with the combinations according to the invention (=mixtures) were employed to calculate interactions using the method of Colby.
as §5

[3] = system: Zea mays (ZEAMX); conditions: for inhibition at 36 g/ha: 36 g of ai/ha alone
Procedure: as §1, §2, §3, §6, §5

[4] = system: Cyperus esculentus (CYPES)
Procedure: as §1, §2, §3, §6, §5

[5] = system: Viola tricolor (VIOTR); conditions: Viola tricolor, post-emergence, 504 h, 21 DAT, read-out: % activity found
Procedure: as §1, §2, §3, §6, §5

[6] = system: Avena fatua (AVEFA); conditions: Avena fatua, post-emergence, 504 h, read-out: % activity found
Procedure: as §1, §2, §3, §6, §5

[7] = system: Alopecurus myosuroides (ALOMY); conditions: read-out: % activity found; for inhibition at 20 g/ha: 20 g of ai/ha alone; for inhibition at 60 g/ha: 60 g of ai/ha alone
Procedure: as §1, §2, §3, §4, §5

[8] = system: Fallopia (ex Polygonum) convolvulus (POLCO); conditions: Fallopia convolvulus, post-emergence, 504 h, POLCO, 21 DAT, read-out: % activity found
Procedure: as §1, §2, §3, §6, §5

[9] = system: Triticum aestivum (TRZAS); conditions: Triticum aestivum, post-emergence, read-out: % activity found; for inhibition at 20 g/ha: 20 g of ai/ha alone; for inhibition at 60 g/ha: 60 g of ai/ha alone; for inhibition at 750 g/ha: 750 g of ai/ha alone
Procedure: as §1, §2, §3, §6, §5

[10] = system: Matricaria inodora (MATIN); conditions: Tripleurospermum inodorum, post-emergence, 504 h, MATIN, 21 DAT, read-out: % activity found
Procedure: as §1, §2, §3, §6, §5

[11] = Cyperus esculentus, post-emergence, 504 h, read-out: % activity found
[12] = Zea mays, post-emergence, 240 h, read-out: % activity found

`COCc1cnc(C2=NC(C)(C(C)C)C(=O)N2)c(C(=O)O)c1` (racemic) [B4-2, (±)-2-[4,5-dihydro-4-methyl-4-(1-methylethyl)-5-oxo-1H-imidazol-2-yl]-5-(methoxymethyl)-3-pyridinecarboxylic acid] gave an inhibition at 7 g/ha ([1]; 240 h, ORYSA, 10 DAT) of 70%, an inhibition at 7 g/ha ([1]; 504 h, ORYSA, 21 DAT) of 70% and an inhibition at 7 g/ha ([2]; 504 h, 21 DAT, 7 g of ai/ha alone) of 80%. The inhibition at 7 g/ha ([3]; Zea mays, post-emergence, 504 h, ZEAMX, 21 DAT, 7 g of ai/ha alone, read-out: % activity found) was 10%, the inhibition at 21 g/ha ([3]; Zea mays, post-emergence, 504 h, ZEAMX, 21 DAT, 21 g of ai/ha alone, read-out: % activity found) was 60% and the inhibition at 7 g/ha ([4]; Cyperus esculentus, post-emergence, 504 h, CYPES, 21 DAT, 7 g of ai/ha alone, read-out: % activity found) was 0%. For the same compound, the inhibition at 7 g/ha ([5]; 7 g of ai/ha alone) was 20%, the inhibition at 21 g/ha ([5]; 21 g of ai/ha alone) was 40% and the inhibition at 21 g/ha ([6]; AVEFA, 21 DAT, 21 g of ai/ha alone) was 70%.
Compound `CS(=O)(=O)c1cc(C(F)(F)F)ccc1C(=O)c1cnoc1C1CC1` [B3-3, (5-cyclopropyl-4-isoxazolyl)[2-(methylsulfonyl)-4-(trifluoromethyl)phenyl]methanone] has an inhibition at 20 g/ha ([7]; 240 h, ALOMY, 10 DAT) of 20%, an inhibition at 60 g/ha ([7]; 240 h, ALOMY, 10 DAT) of 30% and an inhibition at 20 g/ha ([7]; 504 h, ALOMY, 21 DAT) of 0%. For the same compound, the inhibition at 60 g/ha ([7]; 504 h, ALOMY, 21 DAT) was 10%, the inhibition at 20 g/ha ([1]; 240 h, ORYSA, 10 DAT, 20 g of ai/ha alone) was 50% and the inhibition at 20 g/ha ([8]; 20 g of ai/ha alone) was 0%. The inhibition at 60 g/ha ([8]; 60 g of ai/ha alone) was 0%, the inhibition at 20 g/ha ([9]; 240 h, 10 DAT) was 30% and the inhibition at 60 g/ha ([9]; 240 h, 10 DAT) was 50%. It also gave an inhibition at 20 g/ha ([9]; 504 h, 21 DAT) of 20%, an inhibition at 60 g/ha ([9]; 504 h, 21 DAT) of 40% and an inhibition at 60 g/ha ([2]; 240 h, 10 DAT) of 30%. For the same compound, the inhibition at 20 g/ha ([2]; 504 h, 21 DAT, 20 g of ai/ha alone) was 0%, the inhibition at 60 g/ha ([2]; 504 h, 21 DAT) was 0% and the inhibition at 20 g/ha ([3]; Zea mays, post-emergence, 504 h, ZEAMX, 21 DAT, 20 g of ai/ha alone, read-out: % activity found) was 0%. The inhibition at 60 g/ha ([3]; Zea mays, post-emergence, 504 h, ZEAMX, 21 DAT, 60 g of ai/ha alone, read-out: % activity found) was 20% and the inhibition at 20 g/ha ([4]; Cyperus esculentus, post-emergence, 504 h, CYPES, 21 DAT, 20 g of ai/ha alone, read-out: % activity found) was 0%.
For `C#CCOc1cc(-n2nc(C(C)(C)C)oc2=O)c(Cl)cc1Cl` [B5-2, 3-[2,4-dichloro-5-(2-propynyloxy)phenyl]-5-(1,1-dimethylethyl)-1,3,4-oxadiazol-2(3H)-one], the inhibition at 12 g/ha ([7]; 504 h, ALOMY, 21 DAT, 12 g of ai/ha alone) was 20%, the inhibition at 12 g/ha ([10]; 12 g of ai/ha alone) was 60% and the inhibition at 36 g/ha ([10]; 36 g of ai/ha alone) was 60%. It also gave an inhibition at 36 g/ha ([9]; 240 h, 10 DAT, 36 g of ai/ha alone) of 40%, an inhibition at 12 g/ha ([2]; 240 h, 10 DAT) of 40% and an inhibition at 12 g/ha ([2]; 504 h, 21 DAT) of 30%. The inhibition at 36 g/ha ([2]; 504 h, 21 DAT, 36 g of ai/ha alone) was 65%, the inhibition at 36 g/ha ([3]; Zea mays, post-emergence, 240 h, ZEAMX, 10 DAT, read-out: % activity found) was 60% and the inhibition at 36 g/ha ([3]; Zea mays, post-emergence, 504 h, ZEAMX, 21 DAT, read-out: % activity found) was 40%. For the same compound, the inhibition at 12 g/ha ([6]; AVEFA, 21 DAT, 12 g of ai/ha alone) was 20%.
For `CC(C)Oc1cc(-n2nc(C(C)(C)C)oc2=O)c(Cl)cc1Cl` [B5-3, 3-[2,4-dichloro-5-(1-methylethoxy)phenyl]-5-(1,1-dimethylethyl)-1,3,4-oxadiazol-2(3H)-one], the inhibition at 210 g/ha ([1]; 240 h, ORYSA, 10 DAT) was 40%, the inhibition at 70 g/ha ([1]; 504 h, ORYSA, 21 DAT, 70 g of ai/ha alone) was 0% and the inhibition at 210 g/ha ([1]; 504 h, ORYSA, 21 DAT) was 0%. The inhibition at 70 g/ha ([10]; 70 g of ai/ha alone) was 70%, the inhibition at 210 g/ha ([10]; 210 g of ai/ha alone) was 70% and the inhibition at 70 g/ha ([9]; 240 h, 10 DAT, 70 g of ai/ha alone) was 40%. For the same compound, the inhibition at 70 g/ha ([2]; 240 h, 10 DAT) was 50%, the inhibition at 70 g/ha ([2]; 504 h, 21 DAT) was 40% and the inhibition at 210 g/ha ([3]; Zea mays, post-emergence, 504 h, ZEAMX, 21 DAT, 210 g of ai/ha alone, read-out: % activity found) was 60%. The inhibition at 70 g/ha ([6]; AVEFA, 21 DAT, 70 g of ai/ha alone) was 10% and the inhibition at 210 g/ha ([6]; AVEFA, 21 DAT, 210 g of ai/ha alone) was 30%.
`CC(C)c1nn(C(=O)NC(C)(C)C)c(=O)n1N` [B6-1, 4-amino-N-(1,1-dimethylethyl)-4,5-dihydro-3-(1-methylethyl)-5-oxo-1H-1,2,4-triazole-1-carboxamide] gave an inhibition at 750 g/ha ([7]; 504 h, ALOMY, 21 DAT, 750 g of ai/ha alone) of 70%, an inhibition at 250 g/ha ([9]; 240 h, 10 DAT, 250 g of ai/ha alone) of 10% and an inhibition at 750 g/ha ([9]; 240 h, 10 DAT) of 20%. The inhibition at 750 g/ha ([9]; 504 h, 21 DAT) was 70%, the inhibition at 750 g/ha ([2]; 240 h, 10 DAT) was 60% and the inhibition at 750 g/ha ([2]; 504 h, 21 DAT) was 70%. It also gave an inhibition at 750 g/ha ([3]; Zea mays, post-emergence, 504 h, ZEAMX, 21 DAT, 750 g of ai/ha alone, read-out: % activity found) of 10%, an inhibition at 250 g/ha [4, 11] of 0% and an inhibition at 750 g/ha [4, 11] of 0%.
Work on `CCOC(=O)C(Cl)Cc1cc(-n2nc(C)n(C(F)F)c2=O)c(F)cc1Cl` (stereo not drawn) [B6-2, ethyl α,2-dichloro-5-[4-(difluoromethyl)-4,5-dihydro-3-methyl-5-oxo-1H-1,2,4-triazol-1-yl]-4-fluorobenzenepropanoate] yielded an inhibition at 6 g/ha ([7]; 504 h) of 0%, an inhibition at 18 g/ha ([7]; 504 h) of 0% and an inhibition at 6 g/ha ([1]; 240 h) of 50%. The “(7) activity found” value ([3]; ZEAMX, 21 DAT, rate (6) B6-2 6) was 30%, the “(7) activity found” value ([3]; ZEAMX, 21 DAT, rate (6) B6-2 18) was 40% and the inhibition at 6 g/ha [3, 12] was 50%. The inhibition at 18 g/ha [3, 12] was 60%, the “(7) activity found” value ([4]; CYPES, 21 DAT, rate (6) B6-2 18) was 50% and the inhibition at 6 g/ha [6] was 10%.
